According to the NIST ThermoML archive (doi:10.1016/j.fluid.2016.12.025):
Numbers after ± are expanded uncertainties.

How the values were obtained:
[1] = 298.2 K; 101.33 kPa; Liquid; Vibrating tube method
[2] = refractive index (Na D-line) (dimensionless); conditions: 298.2 K; 101.33 kPa; Liquid; Standard Abbe refractometry
[3] = refractive index (Na D-line) (dimensionless); xn = mol fraction of the nth substance listed; conditions: 298.2 K, 101 kPa, Liquid, Standard Abbe refractometry
[4] = xn = mol fraction of the nth substance listed; conditions: 298.2 K, 101 kPa, Liquid, Vibrating tube method

CC(C)CCO [3-methylbutan-1-ol]
Conditions	mass density [kg/m3]	refractive index
[1]	808.94 ± 0.16	–
[2]	–	1.4061 ± 0.0004

CC(C)CCO [3-methylbutan-1-ol] + CCCCCCO
Conditions	mass density, [4] [kg/m3]	refractive index, [3]
x1 = 0.0496	815.43 ± 0.16	1.4154 ± 0.0007
x1 = 0.0997	815.12 ± 0.16	1.4149 ± 0.0007
x1 = 0.2005	814.49 ± 0.16	1.414 ± 0.0007
x1 = 0.3003	813.86 ± 0.16	1.4131 ± 0.0007
x1 = 0.3986	813.22 ± 0.16	1.4121 ± 0.0007
x1 = 0.4998	812.55 ± 0.16	1.4111 ± 0.0007
x1 = 0.6001	811.87 ± 0.16	1.4101 ± 0.0007
x1 = 0.7002	811.17 ± 0.16	1.4091 ± 0.0007
x1 = 0.8	810.46 ± 0.16	1.4081 ± 0.0007
x1 = 0.8998	809.73 ± 0.16	1.4069 ± 0.0007
x1 = 0.9504	809.35 ± 0.16	1.4064 ± 0.0007

CC(C)CCO [3-methylbutan-1-ol] + CCCCO
Conditions	mass density, [4] [kg/m3]	refractive index, [3]
x2 = 0.0498	808.87 ± 0.16	1.4056 ± 0.0007
x2 = 0.0999	808.78 ± 0.16	1.4053 ± 0.0007
x2 = 0.1999	808.58 ± 0.16	1.4045 ± 0.0007
x2 = 0.3	808.35 ± 0.16	1.4037 ± 0.0007
x2 = 0.4	808.09 ± 0.16	1.4029 ± 0.0007
x2 = 0.4999	807.81 ± 0.16	1.402 ± 0.0007
x2 = 0.6016	807.5 ± 0.16	1.4009 ± 0.0007
x2 = 0.7015	807.16 ± 0.16	1.3998 ± 0.0007
x2 = 0.7999	806.8 ± 0.16	1.3988 ± 0.0007
x2 = 0.9007	806.41 ± 0.16	1.3981 ± 0.0007
x2 = 0.9506	806.21 ± 0.16	1.3978 ± 0.0007

CC(C)CCO [3-methylbutan-1-ol] + CCCCOC(C)=O
Conditions	mass density, [4] [kg/m3]	refractive index, [3]
x2 = 0.0497	812.53 ± 0.18	1.4049 ± 0.0007
x2 = 0.104	816.52 ± 0.18	1.4039 ± 0.0007
x2 = 0.1998	823.52 ± 0.17	1.4021 ± 0.0007
x2 = 0.2999	830.68 ± 0.17	1.4005 ± 0.0007
x2 = 0.3999	837.66 ± 0.17	1.399 ± 0.0007
x2 = 0.5001	844.46 ± 0.17	1.3976 ± 0.0007
x2 = 0.6006	851.08 ± 0.17	1.3962 ± 0.0007
x2 = 0.7	857.56 ± 0.16	1.395 ± 0.0007
x2 = 0.8003	863.93 ± 0.16	1.3939 ± 0.0007
x2 = 0.9005	870.23 ± 0.16	1.3928 ± 0.0007
x2 = 0.9466	873.08 ± 0.16	1.3923 ± 0.0007

CCCCO [butan-1-ol]
Conditions	mass density [kg/m3]	refractive index
[1]	806.01 ± 0.16	–
[2]	–	1.3973 ± 0.0004

CCCCOC(C)=O [butyl ethanoate]
Conditions	mass density [kg/m3]	refractive index
[1]	876.26 ± 0.14	–
[2]	–	1.3918 ± 0.0004

CCCCOC(C)=O [butyl ethanoate] + CCCCCCO
Conditions	mass density, [4] [kg/m3]	refractive index, [3]
x1 = 0.0503	818.79 ± 0.17	1.4144 ± 0.0007
x1 = 0.1001	821.75 ± 0.17	1.4131 ± 0.0007
x1 = 0.2012	827.7 ± 0.17	1.4104 ± 0.0007
x1 = 0.3007	833.61 ± 0.17	1.4078 ± 0.0007
x1 = 0.4001	839.54 ± 0.17	1.4053 ± 0.0007
x1 = 0.4999	845.54 ± 0.17	1.4029 ± 0.0007
x1 = 0.6004	851.63 ± 0.16	1.4005 ± 0.0007
x1 = 0.6991	857.64 ± 0.16	1.3982 ± 0.0007
x1 = 0.8003	863.85 ± 0.16	1.396 ± 0.0007
x1 = 0.8953	869.76 ± 0.16	1.3939 ± 0.0007
x1 = 0.9452	872.86 ± 0.16	1.3929 ± 0.0007

CCCCCCO [hexan-1-ol]
Conditions	mass density [kg/m3]	refractive index
[1]	815.88 ± 0.16	–
[2]	–	1.4161 ± 0.0004

CCCCCCO [hexan-1-ol] + CCCCO
Conditions	mass density, [4] [kg/m3]	refractive index, [3]
x2 = 0.0543	815.53 ± 0.16	1.4148 ± 0.0007
x2 = 0.099	815.22 ± 0.16	1.4142 ± 0.0007
x2 = 0.2042	814.42 ± 0.16	1.4126 ± 0.0007
x2 = 0.2993	813.64 ± 0.16	1.4111 ± 0.0007
x2 = 0.4052	812.7 ± 0.16	1.4094 ± 0.0007
x2 = 0.4994	811.8 ± 0.16	1.4078 ± 0.0007
x2 = 0.5938	810.85 ± 0.16	1.406 ± 0.0007
x2 = 0.7005	809.72 ± 0.16	1.4038 ± 0.0007
x2 = 0.8004	808.58 ± 0.16	1.4017 ± 0.0007
x2 = 0.9003	807.35 ± 0.16	1.3997 ± 0.0007
x2 = 0.9499	806.7 ± 0.16	1.3985 ± 0.0007
